Data: US10159249B2 (BAYER CROPSCIENCE AKTIENGESELLSCHAFT, priority 2013, dated 2018)
Read-outs that look alike come from different tables or passages of the source.

Experiments:
[1] = tested on: maize transgenic T0 events expressing Axmi309H-Evo41; format: in vivo; details: 100 g AI/ha, six days after application
Description: Regenerated T0 events from tissue culture were transplanted into two inch square pots with synthetic soil (Fafard® Mix) and controlled-released fertilizer (Haifa Multicote™; polymer-coated controlled-release fertilizer, NPK Pro 18-6-12+Micronutrients) and cultivated in the greenhouse (GH) under supplementary high pressure sodium light for 12 days at a maximum of 30° C. during the day and a minimum of 22° C. at night. Fully recovered plants were transferred into five inch square pots filled with synthetic soil and control released fertilizer under the same environmental conditions. […] All herbicide treatments were conducted in a DeVries Tracker Sprayer system with standard application protocols, which are well known in the art.
A rating of “1” was assigned to plants having a moderate tolerance with 16% to 40% damage of total leaf area. A rating of “2” was assigned to plants with good tolerance within the range of 6% to 15% damage of total leaf area.

[2] = tested on: wild type soybean plants (Merlin and Thorne); format: in vivo; details: 21 days after spraying
[3] = target: PfHPPD-Evo41 (SEQ ID No 29) (Pseudomonas sp., UniProt P80064, A172V/A339Q/A53E/D148E/D45N/E105D/E287Q/E300V/E334P/F143Y/G286D/G335W/H150N/H254A/H63N/I158V/I187A/I249V/K338A/K92N/L18F/N24G/N280D/S245T/S257K/S301E/T205S/V65I); assay: biochemical; design: species or system Pseudomonas fluorescens
Chain of PfHPPD-Evo41 (SEQ ID No 29) (P80064 1-354 with tags or gaps with the stated changes limits assumed): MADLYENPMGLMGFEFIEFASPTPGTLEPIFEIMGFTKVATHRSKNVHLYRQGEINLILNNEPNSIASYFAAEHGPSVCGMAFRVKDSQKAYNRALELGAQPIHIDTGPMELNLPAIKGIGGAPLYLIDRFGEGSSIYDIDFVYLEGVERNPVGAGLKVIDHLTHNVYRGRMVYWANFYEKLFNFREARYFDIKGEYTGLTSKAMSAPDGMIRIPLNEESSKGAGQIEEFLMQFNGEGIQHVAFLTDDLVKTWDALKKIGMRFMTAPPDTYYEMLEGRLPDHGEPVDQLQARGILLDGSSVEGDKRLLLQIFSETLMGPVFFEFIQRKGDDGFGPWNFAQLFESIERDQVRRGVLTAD

PfHPPD (SEQ ID No 46) = target: T1, PfHPPD (SEQ ID No 46) (Pseudomonas sp., UniProt P80064); assay: HPPD activity in presence of inhibitor, HGD assay; format: biochemical, Pseudomonas fluorescens
T1 construct: made in house; host or cells: E. coli K-12 BL21, vector pSE420(RI)NX-PfHPPD
T1 sequence (P80064 other isoform, or with tags, fused parts or gaps with the stated changes): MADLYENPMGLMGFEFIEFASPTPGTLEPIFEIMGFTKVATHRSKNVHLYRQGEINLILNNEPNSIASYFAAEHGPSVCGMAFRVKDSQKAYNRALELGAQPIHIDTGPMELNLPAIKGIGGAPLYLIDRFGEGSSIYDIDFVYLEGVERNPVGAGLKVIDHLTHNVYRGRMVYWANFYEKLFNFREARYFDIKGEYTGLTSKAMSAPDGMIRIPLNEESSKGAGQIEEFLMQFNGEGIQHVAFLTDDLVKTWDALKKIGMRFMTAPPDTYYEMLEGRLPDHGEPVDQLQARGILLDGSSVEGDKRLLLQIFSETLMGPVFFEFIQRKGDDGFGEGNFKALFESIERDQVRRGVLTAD
Description: (§1) With the HGD assay HPPD activity was measured at room temperature by adding appropriate amounts of HPPD to a solution of 200 mM Tris-HCl pH 7.6, 10 mM ascorbate, 20 μM FeSO4, 650 units of catalase, 8 μg HGA dioxygenase (HGA: homogentisate) and 600 μM HPP in a total volume of 1 ml. Initial reaction rates were determined from the increase in absorbance at 318 nm due to the formation of maleylacetoacetate (ε318=11,900 M-1 cm-1).
(§2) In cases, the symbol “>” is used this means that the value was far higher than the one indicated but could not be precisely calculated within in the range of concentration of inhibitor tested.
(§3) In the 1st column of Table 1, the HPPD employed in the assay is named and in the 2nd column of Table 1, the corresponding SEQ ID No of present invention is disclosed.

[4] = target: Avena sativa Δ A109 (SEQ ID No 43) (Avena sativa, UniProt A0ACD5V6K6, DEL109-109); assay: HPPD activity in presence of inhibitor, HGD assay; format: biochemical
Chain of Avena sativa Δ A109 (SEQ ID No 43) (A0ACD5V6K6 entry or part of it DEL109-109): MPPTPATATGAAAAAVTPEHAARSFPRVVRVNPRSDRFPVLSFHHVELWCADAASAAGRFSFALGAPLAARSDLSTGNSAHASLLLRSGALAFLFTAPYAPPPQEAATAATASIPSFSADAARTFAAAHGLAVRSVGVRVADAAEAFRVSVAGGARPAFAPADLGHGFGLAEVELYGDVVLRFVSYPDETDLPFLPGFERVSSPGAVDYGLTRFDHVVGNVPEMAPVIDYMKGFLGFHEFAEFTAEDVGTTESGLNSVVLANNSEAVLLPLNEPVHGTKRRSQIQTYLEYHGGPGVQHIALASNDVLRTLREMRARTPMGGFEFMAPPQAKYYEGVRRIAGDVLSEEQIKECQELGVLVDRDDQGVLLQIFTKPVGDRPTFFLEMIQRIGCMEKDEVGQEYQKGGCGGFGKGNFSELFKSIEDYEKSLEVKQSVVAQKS
Description: as §1, §2, §3

FMP37 (SEQ ID No 9) = FMP37 (SEQ ID No 9) (Blepharisma japonicum, UniProt A8R3H6); assay: HPPD activity in presence of inhibitor, HGD assay; format: biochemical
Chain of FMP37 (SEQ ID No 9) (A8R3H6 1-382): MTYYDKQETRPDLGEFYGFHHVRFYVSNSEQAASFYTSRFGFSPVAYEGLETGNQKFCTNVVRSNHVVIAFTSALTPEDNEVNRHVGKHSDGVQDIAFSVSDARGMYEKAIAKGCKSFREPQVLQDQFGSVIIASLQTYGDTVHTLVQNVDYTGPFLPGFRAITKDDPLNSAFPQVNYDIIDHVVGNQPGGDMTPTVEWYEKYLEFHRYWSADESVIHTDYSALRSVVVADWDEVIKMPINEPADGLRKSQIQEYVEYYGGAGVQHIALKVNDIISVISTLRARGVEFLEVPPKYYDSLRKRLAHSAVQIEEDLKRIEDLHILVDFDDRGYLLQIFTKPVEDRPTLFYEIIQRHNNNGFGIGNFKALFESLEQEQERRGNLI
Description: as §1, §2, §3

FMP27 (SEQ ID No 17) = FMP27 (SEQ ID No 17) (Kordia algicida, UniProt A9DQF2); assay: HPPD activity in presence of inhibitor, HGD assay; format: biochemical
Chain of FMP27 (SEQ ID No 17) (A9DQF2 1-387): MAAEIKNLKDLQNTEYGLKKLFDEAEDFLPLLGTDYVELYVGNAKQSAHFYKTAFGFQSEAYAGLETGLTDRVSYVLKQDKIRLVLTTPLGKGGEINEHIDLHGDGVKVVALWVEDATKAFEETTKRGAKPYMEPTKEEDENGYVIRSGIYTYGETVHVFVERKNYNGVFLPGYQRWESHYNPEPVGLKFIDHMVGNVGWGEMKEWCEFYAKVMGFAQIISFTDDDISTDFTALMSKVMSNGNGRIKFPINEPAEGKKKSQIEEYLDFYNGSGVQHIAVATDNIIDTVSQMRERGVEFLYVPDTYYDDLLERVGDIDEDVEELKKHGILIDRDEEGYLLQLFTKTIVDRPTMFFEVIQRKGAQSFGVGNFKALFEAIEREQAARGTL
Description: as §1, §2, §3

[5] = tested on: transgenic soybean T1 plants expressing PfHPPD-Evo40; format: in vivo; details: for number of events, herbicide tolerance class 0 (41%-100% damaged leaf area) / number of events, herbicide tolerance class 1 (16%-40% damaged leaf area) / number of events, herbicide tolerance class 2 (6%-15% damaged leaf area) / number of events, herbicide tolerance class 3 (0%-5% damaged leaf area): soybean PfHPPD-Evo40, scored after 21 days
PfHPPD336W (SEQ ID No 4) = PfHPPD336W (SEQ ID No 4) (Pseudomonas sp., UniProt P80064, G335W); assay: biochemical; design: species or system Pseudomonas fluorescens
Chain of PfHPPD336W (SEQ ID No 4) (P80064 1-354 with tags or gaps with the stated changes): as the sequence (P80064 other isoform, or with tags, fused parts or gaps with the stated changes) above, with G336W counted along it

Axmi428H (SEQ ID No 31) = Axmi428H (SEQ ID No 31) (Comamonas testosteroni, UniProt A0A8B4SBH1); assay: HPPD activity in presence of inhibitor, HGD assay; format: biochemical, Pseudomonas (=Comamonas) testosteroni; details: 0.2 μM inhibitor
Chain of Axmi428H (SEQ ID No 31) (A0A8B4SBH1 1-373): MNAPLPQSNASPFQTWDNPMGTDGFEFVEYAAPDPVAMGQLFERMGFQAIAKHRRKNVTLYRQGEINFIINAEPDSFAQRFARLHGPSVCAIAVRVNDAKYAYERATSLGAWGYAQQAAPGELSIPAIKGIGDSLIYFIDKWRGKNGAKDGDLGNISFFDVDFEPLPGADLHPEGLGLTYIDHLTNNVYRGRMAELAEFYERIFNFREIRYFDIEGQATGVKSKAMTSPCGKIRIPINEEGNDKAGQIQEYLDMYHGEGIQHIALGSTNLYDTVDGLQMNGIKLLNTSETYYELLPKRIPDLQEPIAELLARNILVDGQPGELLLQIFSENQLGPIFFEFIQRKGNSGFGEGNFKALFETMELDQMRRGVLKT
Description: as §1, §2, §3

[6] = target: PfHPPD-Evo33 (SEQ ID No 25) (Pseudomonas sp., UniProt P80064, A172V/A53E/D148E/D45N/E105D/E287Q/E300V/E334P/F143Y/G286D/G335W/H150N/H254A/H63N/I158V/I187A/I249V/K92N/L18F/N24G/N280D/S245T/S257K/S301E/T205S/V65I); assay: biochemical; design: species or system Pseudomonas fluorescens
Chain of PfHPPD-Evo33 (SEQ ID No 25) (P80064 1-354 with tags or gaps with the stated changes limits assumed): as the sequence (P80064 other isoform, or with tags, fused parts or gaps with the stated changes) above, with E335P, G336W counted along it

[7] = tested on: transgenic soybean T1 plants expressing PfHPPD-Evo41; format: in vivo; details: for number of events, herbicide tolerance class 0 (41%-100% damaged leaf area) / number of events, herbicide tolerance class 1 (16%-40% damaged leaf area) / number of events, herbicide tolerance class 2 (6%-15% damaged leaf area) / number of events, herbicide tolerance class 3 (0%-5% damaged leaf area): soybean PfHPPD-Evo41, scored after 21 days
wild type soybean Thorne = format: in vivo; details: scored after 21 days
[8] = soybean Thorne (wt), 6.25 g AI/ha

CSc1c(C(F)(F)F)ccc(C(=O)Nc2nnnn2C)c1Cl
number of events, herbicide tolerance class 0 (41%-100% damaged leaf area) [1]: 5 | number of events, herbicide tolerance class 1 (16%-40% damaged leaf area) [1]: 9 | number of events, herbicide tolerance class 2 (6%-15% damaged leaf area) [1]: 16 | number of events, herbicide tolerance class 3 (0%-5% damaged leaf area) [1]: 6 | bleaching of the total leaf area ([2]; 6.25 g of AI/ha): 45%-50% | damaged leaf area ([2]; 25 g of AI/ha): 90-100% | IC50 [3]: 200 nM | % inhibition at 0.2 μM ([3]; 0.2 μM inhibitor, HGD assay): 50% | inhibition at 0.2 µM (PfHPPD (SEQ ID No 46); 0.2 μM inhibitor): 76% | IC50 (PfHPPD (SEQ ID No 46); room temperature, 600 μM HPP, molar concentration, read-out: pI50 (converted)): 100 nM | IC50 [4]: 2000 nM | inhibition at 0.2 µM ([4]; 0.2 μM inhibitor, HGD assay): 8% | IC50 (FMP37 (SEQ ID No 9)): 5010 nM | inhibition at 0.2 µM (FMP37 (SEQ ID No 9); 0.2 μM inhibitor, HGD assay): 0% | IC50 (FMP27 (SEQ ID No 17)): 316 nM | inhibition at 0.2 µM (FMP27 (SEQ ID No 17); 0.2 μM inhibitor, HGD assay): 29% | herbicide tolerance ([5]; most soybean T1 plants expressing PfHPPD-Evo40, 25 g AI/ha): high tolerance | number of events, herbicide tolerance class 0 (41%-100% damaged leaf area) ([5]; 6.25 g AI/ha): 0 | number of events, herbicide tolerance class 1 (16%-40% damaged leaf area) ([5]; 6.25 g AI/ha): 0 | number of events, herbicide tolerance class 2 (6%-15% damaged leaf area) ([5]; 6.25 g AI/ha): 0 | number of events, herbicide tolerance class 3 (0%-5% damaged leaf area) ([5]; 6.25 g AI/ha): 4 | number of events, herbicide tolerance class 0 (41%-100% damaged leaf area) ([5]; 25 g AI/ha): 2 | number of events, herbicide tolerance class 1 (16%-40% damaged leaf area) ([5]; 25 g AI/ha): 7 | number of events, herbicide tolerance class 2 (6%-15% damaged leaf area) ([5]; 25 g AI/ha): 1 | number of events, herbicide tolerance class 3 (0%-5% damaged leaf area) ([5]; 25 g AI/ha): 6 | number of events, herbicide tolerance class 0 (41%-100% damaged leaf area) ([5]; 50 g AI/ha): 0 | number of events, herbicide tolerance class 1 (16%-40% damaged leaf area) ([5]; 50 g AI/ha): 4 | number of events, herbicide tolerance class 2 (6%-15% damaged leaf area) ([5]; 50 g AI/ha): 0 | number of events, herbicide tolerance class 3 (0%-5% damaged leaf area) ([5]; 50 g AI/ha): 0 | number of events, herbicide tolerance class 0 (41%-100% damaged leaf area) ([5]; 75 g AI/ha): 0 | number of events, herbicide tolerance class 1 (16%-40% damaged leaf area) ([5]; 75 g AI/ha): 4 | number of events, herbicide tolerance class 2 (6%-15% damaged leaf area) ([5]; 75 g AI/ha): 0 | number of events, herbicide tolerance class 3 (0%-5% damaged leaf area) ([5]; 75 g AI/ha): 0 | IC50 (PfHPPD336W (SEQ ID No 4)): 200 nM | % inhibition at 0.2 μM (PfHPPD336W (SEQ ID No 4); 0.2 μM inhibitor, HGD assay): 76% | inhibition at 0.2 µM (Axmi428H (SEQ ID No 31)): 71% | IC50 [6]: 251 nM | % inhibition at 0.2 μM ([6]; 0.2 μM inhibitor, HGD assay): 39% | herbicide tolerance ([7]; most soybean T1 plants expressing PfHPPD-Evo41, 25 g AI/ha): high tolerance | damaged leaf area ([7]; several soybean T1 plants expressing PfHPPD-Evo41, 50 g AI/ha): less than 5% | number of events, herbicide tolerance class 0 (41%-100% damaged leaf area) ([7]; 6.25 g AI/ha): 0 | number of events, herbicide tolerance class 1 (16%-40% damaged leaf area) ([7]; 6.25 g AI/ha): 0 | number of events, herbicide tolerance class 2 (6%-15% damaged leaf area) ([7]; 6.25 g AI/ha): 0 | number of events, herbicide tolerance class 3 (0%-5% damaged leaf area) ([7]; 6.25 g AI/ha): 12 | number of events, herbicide tolerance class 0 (41%-100% damaged leaf area) ([7]; 25 g AI/ha): 2 | number of events, herbicide tolerance class 1 (16%-40% damaged leaf area) ([7]; 25 g AI/ha): 8 | number of events, herbicide tolerance class 2 (6%-15% damaged leaf area) ([7]; 25 g AI/ha): 1 | number of events, herbicide tolerance class 3 (0%-5% damaged leaf area) ([7]; 25 g AI/ha): 21 | number of events, herbicide tolerance class 0 (41%-100% damaged leaf area) ([7]; 50 g AI/ha): 0 | number of events, herbicide tolerance class 1 (16%-40% damaged leaf area) ([7]; 50 g AI/ha): 1 | number of events, herbicide tolerance class 2 (6%-15% damaged leaf area) ([7]; 50 g AI/ha): 0 | number of events, herbicide tolerance class 3 (0%-5% damaged leaf area) ([7]; 50 g AI/ha): 3 | number of events, herbicide tolerance class 0 (41%-100% damaged leaf area) ([7]; 75 g AI/ha): 0 | number of events, herbicide tolerance class 1 (16%-40% damaged leaf area) ([7]; 75 g AI/ha): 4 | number of events, herbicide tolerance class 2 (6%-15% damaged leaf area) ([7]; 75 g AI/ha): 0 | number of events, herbicide tolerance class 3 (0%-5% damaged leaf area) ([7]; 75 g AI/ha): 0 | number of events, herbicide tolerance class 0 (41%-100% damaged leaf area) (wild type soybean Thorne; [8]): 4 | number of events, herbicide tolerance class 1 (16%-40% damaged leaf area) (wild type soybean Thorne; [8]): 0 | number of events, herbicide tolerance class 2 (6%-15% damaged leaf area) (wild type soybean Thorne; [8]): 0 | number of events, herbicide tolerance class 3 (0%-5% damaged leaf area) (wild type soybean Thorne; [8]): 0 | number of events, herbicide tolerance class 0 (41%-100% damaged leaf area) (wild type soybean Thorne; soybean Thorne, 25 g AI/ha): 4 | number of events, herbicide tolerance class 1 (16%-40% damaged leaf area) (wild type soybean Thorne; soybean Thorne, 25 g AI/ha): 0 | number of events, herbicide tolerance class 2 (6%-15% damaged leaf area) (wild type soybean Thorne; soybean Thorne, 25 g AI/ha): 0 | number of events, herbicide tolerance class 3 (0%-5% damaged leaf area) (wild type soybean Thorne; soybean Thorne, 25 g AI/ha): 0
